Assay results as given in US20230102554A1 (GB002, INC., priority 2019, published 2023).

What was measured:
[1] = biological target: T1, Human PDGFRα, cytoplasmic domain (GST-PDGFRα) (Homo sapiens, UniProt P16234); experiment: Human PDGFRα biochemical inhibition assay (off-chip Mobility Shift Assay)
T1 construct: made in house

[2] = biological target: T2, Human PDGFRβ, cytoplasmic domain (GST-PDGFRβ) (Homo sapiens, UniProt P09619); experiment: Human PDGFRβ biochemical inhibition assay (off-chip Mobility Shift Assay)
T2 construct: made in house
Summary of the method: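 GST-tagged cytoplasmic domain (aa 557-1106) from baculovirus was incubated 1 h at room temperature with compound, CSKtide, ATP at Km and Mg²⁺ in HEPES buffer, pH 7.5. Phosphorylated and unphosphorylated peptide were separated by off-chip mobility shift, and the product ratio P/(P+S) gave percent inhibition.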

T2 sequence (P09619 with tags, fused parts or gaps): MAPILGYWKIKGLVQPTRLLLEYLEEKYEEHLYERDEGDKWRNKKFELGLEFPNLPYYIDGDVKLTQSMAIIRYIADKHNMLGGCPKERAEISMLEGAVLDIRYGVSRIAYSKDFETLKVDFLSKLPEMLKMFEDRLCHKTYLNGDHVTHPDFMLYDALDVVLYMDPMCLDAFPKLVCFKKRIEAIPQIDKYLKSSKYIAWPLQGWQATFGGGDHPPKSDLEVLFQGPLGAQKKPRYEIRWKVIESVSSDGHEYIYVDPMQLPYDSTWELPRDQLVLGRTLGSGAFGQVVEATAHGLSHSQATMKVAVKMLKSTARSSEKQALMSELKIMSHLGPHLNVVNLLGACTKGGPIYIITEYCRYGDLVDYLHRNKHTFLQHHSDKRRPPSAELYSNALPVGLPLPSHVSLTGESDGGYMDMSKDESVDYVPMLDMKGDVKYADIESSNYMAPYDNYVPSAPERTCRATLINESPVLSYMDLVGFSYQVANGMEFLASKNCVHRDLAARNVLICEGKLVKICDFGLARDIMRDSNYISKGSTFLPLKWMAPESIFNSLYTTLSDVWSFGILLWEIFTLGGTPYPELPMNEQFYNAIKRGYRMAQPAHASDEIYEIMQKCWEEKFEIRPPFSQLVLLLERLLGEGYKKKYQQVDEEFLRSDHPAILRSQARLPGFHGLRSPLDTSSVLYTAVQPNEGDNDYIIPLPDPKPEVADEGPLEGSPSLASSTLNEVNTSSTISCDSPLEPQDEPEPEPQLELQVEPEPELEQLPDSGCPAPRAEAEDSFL
T1 sequence (P16234 550-1089 T674I): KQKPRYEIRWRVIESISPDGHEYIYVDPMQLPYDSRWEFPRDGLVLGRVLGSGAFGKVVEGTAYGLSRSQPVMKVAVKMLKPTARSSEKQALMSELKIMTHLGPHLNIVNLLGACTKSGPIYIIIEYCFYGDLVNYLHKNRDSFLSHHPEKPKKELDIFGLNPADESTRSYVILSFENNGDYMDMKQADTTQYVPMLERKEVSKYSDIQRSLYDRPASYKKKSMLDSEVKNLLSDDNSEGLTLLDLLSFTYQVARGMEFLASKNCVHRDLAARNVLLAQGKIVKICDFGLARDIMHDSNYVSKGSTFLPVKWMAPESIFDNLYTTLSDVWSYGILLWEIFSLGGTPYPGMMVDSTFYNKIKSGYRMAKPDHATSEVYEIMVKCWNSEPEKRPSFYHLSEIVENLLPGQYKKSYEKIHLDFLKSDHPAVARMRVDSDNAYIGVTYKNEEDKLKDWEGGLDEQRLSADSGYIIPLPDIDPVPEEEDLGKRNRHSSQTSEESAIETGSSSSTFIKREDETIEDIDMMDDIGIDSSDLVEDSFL

IC50 [1] [nM]	IC50 [2] [nM]	SMILES
< 300	< 300	C[C@H](Nc1cnc2cnn(C)c2n1)c1cc(NC(=O)c2ccc(C3CC3)nc2)ccc1F [Compound 201, (S)-6-cyclopropyl-N-(4-fluoro-3-(1-((1-methyl-1H-pyrazolo[3,4-b]pyrazin-6-yl)amino)ethyl)phenyl) nicotinamide]
< 300	< 300	CSc1ccc(C(=O)Nc2cccc([C@H](C)Nc3cnc4cnn(C)c4n3)c2)cn1 [Compound 218, (S)-N-(3-(1-((1-methyl-1H-pyrazolo[3,4-b]pyrazin-6-yl)amino)ethyl)phenyl)-6-(methylthio)nicotinamide]
< 300	< 300	CCn1cc2ncc(N[C@@H](C)c3cccc(NC(=O)c4ccc(C5CC5)nc4)c3)nc2n1 [Compound 283, (S)-6-cyclopropyl-N-(3-(1-((2-ethyl-2H-pyrazolo[3,4-b]pyrazin-6-yl)amino)ethyl)phenyl)nicotinamide]
< 300	< 300	CCn1cc2ncc(N[C@@H](C)c3cccc(NC(=O)c4ccc(C#N)c(C)c4)c3)nc2n1 [Compound 331, (S)-4-cyano-N-(3-(1-((2-ethyl-2H-pyrazolo[3,4-b]pyrazin-6-yl)amino)ethyl)phenyl)-3-methylbenzamide]
300 to 1000	≥ 1000	CCn1cc2ncc(N[C@@H](C)c3cccc(NC(=O)Cc4ccc(C5CC5)cn4)c3)nc2n1 [Compound 682, (S)-2-(5-cyclopropylpyridin-2-yl)-N-(3-(1-((2-ethyl-2H-pyrazolo[3,4-b]pyrazin-6-yl)amino)ethyl)phenyl)acetamide]
< 300	≥ 1000	CCn1cc2ncc(N[C@@H](C)c3cc(NC(=O)Cc4ccc(C5CC5)cn4)ccc3C)nc2n1 [Compound 662, (S)-2-(5-cyclopropylpyridin-2-yl)-N-(3-(1-((2-ethyl-2H-pyrazolo[3,4-b]pyrazin-6-yl)amino)ethyl)-4-methylphenyl) acetamide]
< 300	300 to 1000	CCn1cc2ncc(N[C@@H](C)c3cccc(NC(=O)Cc4cc(F)cc(CN5CCN(C)CC5)c4)c3)nc2n1 [Compound 646, (S)-N-(3-(1-((2-ethyl-2H-pyrazolo[3,4-b]pyrazin-6-yl)amino)ethyl)phenyl)-2-(3-fluoro-5-((4-methylpiperazin-1-yl)methyl)phenyl)acetamide]
≥ 1000	≥ 1000	CCn1cc2ncc(N[C@@H](C)c3cc(NC(=O)Cc4cc(CN5CCCC5)c(C)cn4)ccc3C)nc2n1 [Compound 727, (S)-N-(3-(1-((2-ethyl-2H-pyrazolo[3,4-b]pyrazin-6-yl)amino)ethyl)-4-methylphenyl)-2-(5-methyl-4-(pyrrolidin-1-ylmethyl)pyridin-2-yl)acetamide]
< 300	< 300	COc1ccc(C(=O)Nc2cccc([C@H](C)Nc3cnc4[nH]cc(-c5cnn(C)c5)c4n3)c2)cn1 [Compound 566, (S)-6-methoxy-N-(3-(1-((7-(1-methyl-1H-pyrazol-4-yl)-5H-pyrrolo[2,3-b]pyrazin-2-yl)amino)ethyl)phenyl) nicotinamide]
300 to 1000	300 to 1000	CCn1cc2ncc(N[C@@H](C)c3cccc(NC(=O)c4ccc(C#N)cc4)c3)nc2n1 [Compound 346, (S)-4-cyano-N-(3-(1-((2-ethyl-2H-pyrazolo[3,4-b]pyrazin-6-yl)amino)ethyl)phenyl)benzamide]
< 300	< 300	C[C@H](Nc1cnc2cnn(C)c2n1)c1cccc(NC(=O)c2cnn(CC3CC3)c2)c1 [Compound 152, (S)-1-(cyclopropylmethyl)-N-(3-(1-((1-methyl-1H-pyrazolo[3,4-b]pyrazin-6-yl)amino)ethyl)phenyl)-1H-pyrazole-4-carboxamide]
300 to 1000	300 to 1000	CCn1cc(C(=O)Nc2cccc([C@H](C)Nc3cnc4cn(CC)nc4n3)c2)cn1 [Compound 297, (S)-1-ethyl-N-(3-(1-((2-ethyl-2H-pyrazolo[3,4-b]pyrazin-6-yl)amino)ethyl)phenyl)-1H-pyrazole-4-carboxamide]
< 300	< 300	CCn1cc2ncc(N[C@@H](C)c3cc(NC(=O)c4cnn(C(C)C)c4)ccc3F)nc2n1 [Compound 313, (S)-N-(3-(1-((2-ethyl-2H-pyrazolo[3,4-b]pyrazin-6-yl)amino)ethyl)-4-fluorophenyl)-1-isopropyl-1H-pyrazole-4-carboxamide]
300 to 1000	≥ 1000	CCn1cc2ncc(N[C@@H](C)c3cccc(NC(=O)c4cnc(NC5CCOCC5)c(C)c4)c3)nc2n1 [Compound 351, (S)-N-(3-(1-((2-ethyl-2H-pyrazolo[3,4-b]pyrazin-6-yl)amino)ethyl)phenyl)-5-methyl-6-((tetrahydro-2H-pyran-4-yl)amino)nicotinamide]
< 300	< 300	CCn1cc2ncc(N[C@@H](C)c3cccc(NC(=O)c4cnc5c(c4)CCC5)c3)nc2n1 [Compound 58, (S)-N-(3-(1-((2-ethyl-2H-pyrazolo[3,4-b]pyrazin-6-yl)amino)ethyl)phenyl)-6,7-dihydro-5H-cyclope3nta[6] pyridine-3-carboxamide]
< 300	< 300	Cc1ncc(C(=O)Nc2cccc([C@H](C)Nc3cnc4cnn(C)c4n3)c2)cc1C(F)(F)F [Compound 124, (S)-6-methyl-N-(3-(1-((1-methyl-1H-pyrazolo[3,4-b]pyrazin-6-yl)amino)ethyl)phenyl)-5-(trifluoromethyl) nicotinamide]
< 300	< 300	CCn1cc2ncc(N[C@@H](C)c3cccc(NC(=O)c4ccc(CN5CC6(COC6)C5)c(C5CC5)c4)c3)nc2n1 [Compound 505, (S)-4-((2-oxa-6-azaspiro[3.3]heptan-6-yl)methyl)-3-cyclopropyl-N-(3-(1-((2-ethyl-2H-pyrazolo[3,4-b]pyrazin-6-yl)amino)ethyl)phenyl)benzamide]
< 300	300 to 1000	CCn1cc2ncc(N[C@@H](C)c3cccc(NC(=O)c4cnn(CCF)c4)c3)nc2n1 [Compound 298, (S)-N-(3-(1-((2-ethyl-2H-pyrazolo[3,4-b]pyrazin-6-yl)amino)ethyl)phenyl)-1-(2-fluoroethyl)-1H-pyrazole-4-carboxamide]
< 300	< 300	C[C@H](Nc1cnc2cnn(C)c2n1)c1cccc(NC(=O)c2ccc3ccn(C)c3c2)c1 [Compound 50, (S)-1-methyl-N-(3-(1-((1-methyl-1H-pyrazolo[3,4-b]pyrazin-6-yl)amino)ethyl)phenyl)-1H-indole-6-carboxamide]
< 300	300 to 1000	CCn1cc2ncc(N[C@@H](C)c3cccc(NC(=O)c4cncc(Cl)c4)c3)nc2n1 [Compound 281, (S)-5-chloro-N-(3-(1-((2-ethyl-2H-pyrazolo[3,4-b]pyrazin-6-yl)amino)ethyl)phenyl) nicotinamide]
< 300	≥ 1000	CCn1cc2ncc(N[C@@H](C)c3cc(NC(=O)Cc4ccc(C)nc4)ccc3C)nc2n1 [Compound 664, (S)-N-(3-(1-((2-ethyl-2H-pyrazolo[3,4-b]pyrazin-6-yl)amino)ethyl)-4-methylphenyl)-2-(6-methylpyridin-3-yl) acetamide]
≥ 1000	≥ 1000	CCn1cc2ncc(N[C@@H](C)c3cccc(NC(=O)c4cnc(OC)s4)c3)nc2n1 [Compound 325, (S)-N-(3-(1-((2-ethyl-2H-pyrazolo[3,4-b]pyrazin-6-yl)amino)ethyl)phenyl)-2-methoxythiazole-5-carboxamide]
< 300	< 300	C[C@H](Nc1cnc2cn(CC3CNC3)nc2n1)c1cc(NC(=O)c2cnc(C(F)(F)F)s2)ccc1F [Compound 391, (S)-N-(3-(1-((2-(azetidin-3-ylmethyl)-2H-pyrazolo[3,4-b]pyrazin-6-yl)amino)ethyl)-4-fluorophenyl)-2-(trifluoromethyl)thiazole-5-carboxamide]
< 300	< 300	CCn1cc2ncc(N[C@@H](C)c3cccc(NC(=O)c4ccc(Cn5ccnc5)c(C)c4)c3)nc2n1 [Compound 435, (S)-4-((1H-imidazol-1-yl)methyl)-N-(3-(1-((2-ethyl-2H-pyrazolo[3,4-b]pyrazin-6-yl)amino)ethyl)phenyl)-3-methylbenzamide]
300 to 1000	≥ 1000	CCn1cc2ncc(N[C@@H](C)c3cccc(NC(=O)c4ccc(CN5CC[C@H](O)C5)c(C)c4)c3)nc2n1 [Compound 471, N-(3-((S)-1-((2-ethyl-2H-pyrazolo[3,4-b]pyrazin-6-yl)amino)ethyl)phenyl)-4-(((S)-3-hydroxypyrrolidin-1-yl)methyl)-3-methylbenzamide]
< 300	< 300	Cc1n[nH]c2ncc(N[C@@H](C)c3cccc(NC(=O)c4ccc(C(F)(F)F)nc4)c3)nc12 [Compound 534, (S)-N-(3-(1-((3-methyl-1H-pyrazolo[3,4-b]pyrazin-5-yl)amino)ethyl)phenyl)-6-(trifluoromethyl)nicotinamide]
< 300	< 300	Cc1cc(C(=O)Nc2cccc([C@H](C)Nc3cnc4cnn(C)c4n3)c2)cnc1OC(C)C [Compound 248, (S)-6-isopropoxy-5-methyl-N-(3-(1-((1-methyl-1H-pyrazolo[3,4-b]pyrazin-6-yl)amino)ethyl)phenyl) nicotinamide]
< 300	< 300	C[C@H](Nc1cnc2cnn(C)c2n1)c1cccc(NC(=O)c2cc(C3CC3)on2)c1 [Compound 144, (S)-5-cyclopropyl-N-(3-(1-((1-methyl-1H-pyrazolo[3,4-b]pyrazin-6-yl)amino)ethyl)phenyl)isoxazole-3-carboxamide]
< 300	< 300	CCn1cc(C(=O)Nc2cccc([C@H](C)Nc3cnc4cnn(C)c4n3)c2)cn1 [Compound 153, (S)-1-ethyl-N-(3-(1-((1-methyl-1H-pyrazolo[3,4-b]pyrazin-6-yl)amino)ethyl)phenyl)-1H-pyrazole-4-carboxamide]
